Measurements from patent US20180028516A1, “METHODS AND DEVICES FOR THE TREATMENT OF OCULAR DISEASES IN HUMAN SUBJECTS” (CLEARSIDE BIOMEDICAL, INC., priority 2012, published 2018).

Assays:
[1] = Plasma and ocular matrix toxicokinetics after SCS TA, LC-MS/MS (Example 9); assay type: in vivo, New Zealand White rabbit
Method: (§1) On Day 0, New Zealand White (NZW) rabbits were administered a single bilateral supraehoroidal injection of vehicle, 3.2 mg (80 μL) or 5.2 mg (130 μL) of TA (Triesence®, Alcoa labs) using a 33 g 750 μm microneedle. Clinical observations, slit lamp biomicroscopy with McDonald-Shadduck scoring, intraocular pressure assessment (IOP), electroretinography (ERG), and systemic exposure were assessed up to 26 weeks post-dose. Animals were sacrificed on Day 1, Week 13, and Week 26 for macroscopic observations, ocular toxicokinetics, and ocular histopathology.
Plasma and oct lar matrixes (aqueous humor (AH), lens, iris/ciliary body (ICB), vitreous humor (VH), sclera/choroid (SC), and retina) were sampled on Days 1, 14, 28, and 60. Plasma (LLOQ 0.5 ng/mL) and ocular matrixes (LLOQ 2-15 ng/mL) were analyzed using LC-MS/MS, and resulting data were assessed for noncompartmental PK parameters. Systemic exposure to TA was minimal (FIG. 20C).

[2] = Optical coherence tomography, retinal thickness (Example 13); assay type: in vivo, domestic weanling pigs; settings: all groups, prior to or following the injections
Description: Following wide-field ocular tlindus photography on Days −1, 0, and 3, the central retina was imaged with spectral-domain optical coherence tomography (SD-OCT) (Bioptigen SDOCT EnVisu Ophthalmic Imaging System, Durham, N.C.) using 6 imaging protocols (including rectangular volume scans of 6, 8, and 12 mm, and doppler rectangular volume).

[3] = system: LPS-induced acute posterior uveitis; test: Ocular histopathology and histologic inflammatory scores in porcine uveitis study (Example 13); assay type: in vivo
Method: Pigs were euthanized on study day 3 after clinical scoring, OCT, ERG, and wide-field ocular fundus photography was completed. After euthanasia with an overdose of intravenous barbiturate, both eyes were removed, Aqueous humor (All) was aspirated and a 1 mL sample of vitreous humor (VH) was collected from each eye immediately after euthanasia. The globe was then fixed in Davidson's solution for 24 hours, followed by alcohol. Central, saggital sections of each globe, including the optic nerve, were stained with hematoxylin and eosin and examined by light microscopy. Two pathology-trained observers, masked to the study groups, graded degree of inflammatory infiltrate of the ocular anterior and posterior segments. The grading scale for the anterior and posterior ocular segment used was as follows: 0=no evidence of cellular infiltrate; 1=a few cells infiltrated (mild)−focal; 2=a few cells infiltrated (mild)−diffuse; 3=moderate number of cells infiltrated; and 4=high amount of cellular infiltrate.
Differences were considered significant at P<0.05.

[4] = Ocular safety and histopathology after SCS TA (Example 8); assay type: in vivo, pigmented rabbits; settings: SCS TA by microneedle, up to 120 days
Method: in this study, the total amount of triamcinolone acetonide (TA) delivered into live pigmented rabbit eyes when injected, into the suprachoroidal space using a hollow microneedle or into the vitreous using a standard 30 gauge needle was compared.
On Day 0, pigmented rabbits were injected with either intravitreal or bilateral suprachoroidal injections of 2 mg/100 μl TA Triesence® (TA; Alcon Labs). intravitreal injections were performed using a 30 g needle (Becton-Dickinson) and suprachoroidal injections were performed using a 33 g 750 μm microneedle. The residual amount of TA present in the syringe/needle assembly after injection was determined by RP-HPLC. Clinical observations, slit lamp biomicroscopy with McDonald-Shadduck scoring, intraocular pressure assessment (IOP), electroretinography (ERG), and systemic exposure were assessed up to 120 days post-dose. Animals were sacrificed at 30 minutes, 7 days, 30 days, 60 days, and 120 days for macroscopic observations, ocular toxicokinetics, and ocular histopathology.

[5] = Safety endpoints (mortality, body weights, ocular observations, IOP) in the rabbit uveitis study (Example 11); assay type: in vivo, New Zealand White rabbits
Method: In this study, the effects of pretreatment with suprachoroidal or intravitreal triamcinolone acetonide (TA) in a subretinal endotoxin-induced model of posterior segment uveitis in New Zealand White rabbits was evaluated.
On Day 1, female rabbits (4 eyes/group) received a single unilateral injection of vehicle or 4 mg TA (Triesence®, 40 mg/mL suspension, Alcon Labs) into the suprachoroidal space (SCS) using a 33 g 750 μm microneedle, or a 4 mg TA IVT injection using a standard 30 g needle. On Day 6, each animal received a single unilateral subretinal injection of lipopolysaccharide (LPS, 20-30 μL, 203 μg/g of 1% sodium hylauronate) to induce ocular inflammation in the treated eye. Animals were monitored for 22 days following dose administration. Endpoints included body weights, ocular observations, slit lamp biomicroscopy with McDonald-Shadduck scoring and photography, indirect ophthalmoscopy, fundus photography, intraocular pressure (IOP), and histopathology. A summary of the study design is shown below, in Table 6.

[6] = Scotopic electroretinography after SCS TA (Example 9); assay type: in vivo, New Zealand White rabbit; settings: for Scotopic OdB wave A, Amplitude, Mean / Scotopic OdB wave A, Time, Mean / Scotopic OdB wave B, Amplitude, Mean / Scotopic OdB wave B, Time, Mean: right & left eye
Method: In this study, the ocular tolerability and toxicokinetics of suprachoroidal administration of triamcinolone acetonide (TA) using a microneedle in a GLP study in the New Zealand White rabbit.
as §1

[7] = Group 3: LPS intravitreal/low dose (0.2 mg) TA SCS
[8] = Group 4: LPS intravitreal/high dose (2.0 mg) TA SCS
[9] = Group 5: LPS intravitreal/low dose (0.2 mg) TA IVT
[10] = Group 6 (printed: LPS intravitreal/high dose TA SCS)

## CC1(C)O[C@@H]2C[C@H]3[C@@H]4CCC5=CC(=O)C=C[C@]5(C)[C@@]4(F)[C@@H](O)C[C@]3(C)[C@]2(C(=O)CO)O1 [TA, triamcinolone acetonide]
[1]; 3.2 or 5.2 mg TA SCS, plasma
  systemic exposure to TA: minimal
[1]; SCS TA
  difference between TA levels in sclera/choroid and in the vitreous: 6 orders of magnitude
[1]; by day 15, SCS
  amount of TA retained in the retina, high dose vs low dose: did not significantly differ
[1]; by day 30, SCS
  amount of TA retained in the sclera/choroid, high dose vs low dose: did not significantly differ
[1]; following SCS TA
  order of TA in ocular matrixes (decreasing): SC>retina>ICB>VH>lens>AU
[1]; for longer than 28 days after a single SCS dose
  sclera/choroid tissue concentration of TA: greater than 100 μg/g tissue
[1]; peaked on Day 1, both the high and low TA dose groups (5.2 and 3.2 mg SCS)
  TA peak concentration in plasma: around 12 nglint
[2]
  retinal thickness (SD-OCT), difference between groups: no significant difference
[3]; 2.0 mg TA SCS (Group 4)
  inflammation or histologic evidence of toxicity in the SCS: no inflammation or histologic evidence of toxicity in the SCS
[3]; [7]
  histopathology, inner retinal layers and vitreous: moderate infiltrate of neutrophils
  histopathology, iris: mild neutrophilic infiltrate
[3]; [8]
  histopathology, anterior segment: normal
  histopathology, vitreous: very mild neutrophilic infiltration
[3]; Group 4: high dose TA SCS
  mean histologic inflammatory scores in the ocular posterior segment compared with Groups 2, 5 and 6: significantly lower
[3]; [9]
  histopathology, anterior uvea: mild neurophilic infiltrate
  histopathology, vitreous: moderate to severe cellular infiltrate
[3]; Group 5: low dose TA IVT
  mean histologic inflammatory scores in the anterior segment compared with Groups 4 and 6: significantly higher
[3]; [10]
  histopathology, anterior uvea: mild neutrophilic infiltrate
  histopathology, vitreous: moderate vitreal infiltrates
[3]; Group 6: high dose IVT TA
  mean histologic inflammatory scores compared with vehicle treated eyes (Group 2): significantly lower
[3]; all groups, 0.2 or 2.0 mg TA SCS or IVT
  tissue structural or toxicologic changes on histopathology: None of the eyes examined in any group had evidence of substantial tissue structural or toxicologic changes
[4]
  safety profile (inflammation, edema, apoptosis, necrosis): no marked inflammation, edema, apoptosis, or necrosis at any time point
[5]; 4 mg TA SCS
  IOP after SCS TA administration: no significant increase
[5]; 4 mg TA SCS or IVT
  effects on mortality, body weights, or ocular observations: no test article- or administration-related effects
[6]; 3.2 mg TA/eye SCS, Baseline
  Scotopic OdB wave A, Amplitude, Mean: −133.2 μV
  Scotopic OdB wave A, Time, Mean: 11.6 ms
  Scotopic OdB wave B, Amplitude, Mean: 285.8 μV
  Scotopic OdB wave B, Time, Mean: 42.1 ms
[6]; 3.2 mg TA/eye SCS, Day 1
  Scotopic OdB wave A, Amplitude, Mean: −132 μV
  Scotopic OdB wave A, Time, Mean: 11.4 ms
  Scotopic OdB wave B, Amplitude, Mean: 276.5 μV
  Scotopic OdB wave B, Time, Mean: 47.5 ms
[6]; 3.2 mg TA/eye SCS, Week 13
  Scotopic OdB wave A, Amplitude, Mean: −132.6 μV
  Scotopic OdB wave A, Time, Mean: 11.7 ms
  Scotopic OdB wave B, Amplitude, Mean: 299.8 μV
  Scotopic OdB wave B, Time, Mean: 51.1 ms
[6]; 5.2 mg TA/eye SCS, Baseline
  Scotopic OdB wave A, Amplitude, Mean: −137.3 μV
  Scotopic OdB wave A, Time, Mean: 11.7 ms
  Scotopic OdB wave B, Amplitude, Mean: 286.4 μV
  Scotopic OdB wave B, Time, Mean: 42.3 ms
[6]; 5.2 mg TA/eye SCS, Day 1
  Scotopic OdB wave A, Amplitude, Mean: −130.8 μV
  Scotopic OdB wave A, Time, Mean: 11.4 ms
  Scotopic OdB wave B, Amplitude, Mean: 265.7 μV
  Scotopic OdB wave B, Time, Mean: 43.1 ms
[6]; 5.2 mg TA/eye SCS, Week 13
  Scotopic OdB wave A, Amplitude, Mean: −117.1 μV
  Scotopic OdB wave A, Time, Mean: 12.6 ms
  Scotopic OdB wave B, Amplitude, Mean: 264.6 μV
  Scotopic OdB wave B, Time, Mean: 45.7 ms
[6]; 3.2 or 5.2 mg TA SCS
  effect on a-wave or b-wave implicit time or amplitude (scotopic ERG): no administration or TA-related effect
